Reference: US20050159427A1, “N-acylsulfonamide apoptosis promoters” (priority 2003, published 2005)

Experiments:
786-0 = assay: Tumor cell viability (TABLE 1); assay type: cell-based; conditions: Homo sapiens, read-out: EC50 (50% reduction in cell viability); 786-0 (Renal); serum-free conditions, 48 hour treatment; mean ± SEM
NCI/ADR-RES = assay: Tumor cell viability (TABLE 1); assay type: cell-based; conditions: Homo sapiens, read-out: EC50 (50% reduction in cell viability); NCI/ADR-RES (Breast); serum-free conditions, 48 hour treatment
NCI-H322M = assay: Tumor cell viability (TABLE 1); assay type: cell-based; conditions: Homo sapiens, read-out: EC50 (50% reduction in cell viability); NCI-H322M (Non-Small Cell Lung); serum-free conditions, 48 hour treatment; mean ± SEM
NCI-H23 = assay: Tumor cell viability (TABLE 1); assay type: cell-based; conditions: Homo sapiens, read-out: EC50 (50% reduction in cell viability); NCI-H23 (Non-Small Cell Lung); serum-free conditions, 48 hour treatment; mean ± SEM
OVCAR-8 = assay: Tumor cell viability (TABLE 1); assay type: cell-based; conditions: Homo sapiens, read-out: EC50 (50% reduction in cell viability); OVCAR-8 (Ovarian); serum-free conditions, 48 hour treatment; mean ± SEM
RXF-393 = assay: Tumor cell viability (TABLE 1); assay type: cell-based; conditions: Homo sapiens, read-out: EC50 (50% reduction in cell viability); RXF-393 (Renal); serum-free conditions, 48 hour treatment; mean ± SEM
DU-145 = assay: Tumor cell viability (TABLE 1); assay type: cell-based; conditions: Homo sapiens, read-out: EC50 (50% reduction in cell viability); DU-145 (Prostate); serum-free conditions, 48 hour treatment; mean ± SEM
NCI-H460 = assay: Tumor cell viability (TABLE 1); assay type: cell-based; conditions: Homo sapiens, read-out: EC50 (50% reduction in cell viability); NCI-H460 (Non-Small Cell Lung); serum-free conditions, 48 hour treatment; mean ± SEM
T47D = assay: Tumor cell viability (TABLE 1); assay type: cell-based; conditions: Homo sapiens, read-out: EC50 (50% reduction in cell viability); T47D (Breast); serum-free conditions, 48 hour treatment
RS11380 = RS11380 model of B-cell follicular lymphoma; assay type: in vivo
SK-MEL-5 = assay: Tumor cell viability (TABLE 1); assay type: cell-based; conditions: Homo sapiens, read-out: EC50 (50% reduction in cell viability); SK-MEL-5 (Melanoma); serum-free conditions, 48 hour treatment; mean ± SEM
MALME-3M = assay: Tumor cell viability (TABLE 1); assay type: cell-based; conditions: Homo sapiens, read-out: EC50 (50% reduction in cell viability); MALME-3M (Melanoma); serum-free conditions, 48 hour treatment; mean ± SEM
KM12 = assay: Tumor cell viability (TABLE 1); assay type: cell-based; conditions: Homo sapiens, read-out: EC50 (50% reduction in cell viability); KM12 (Colorectal); serum-free conditions, 48 hour treatment; mean ± SEM
MDA-MB-436 = assay: Tumor cell viability (TABLE 1); assay type: cell-based; conditions: Homo sapiens, read-out: EC50 (50% reduction in cell viability); MDA-MB-436 (Breast); serum-free conditions, 48 hour treatment; mean ± SEM
NCI-H226 = assay: Tumor cell viability (TABLE 1); assay type: cell-based; conditions: Homo sapiens, read-out: EC50 (50% reduction in cell viability); NCI-H226 (Non-Small Cell Lung); serum-free conditions, 48 hour treatment; mean ± SEM
HCT-116 = assay: Tumor cell viability (TABLE 1); assay type: cell-based; conditions: Homo sapiens, read-out: EC50 (50% reduction in cell viability); HCT-116 (Colorectal); serum-free conditions, 48 hour treatment; mean ± SEM
PC3 = PC3 derived murine model of prostate cancer; assay type: in vivo
SuDHL4 = SuDHL4 model of B-cell follicular lymphoma; assay type: in vivo
BT-549 = assay: Tumor cell viability (TABLE 1); assay type: cell-based; conditions: Homo sapiens, read-out: EC50 (50% reduction in cell viability); BT-549 (Breast); serum-free conditions, 48 hour treatment; mean ± SEM
H146 = H146 small cell lung cancer murine model; assay type: in vivo
Excerpt: (H146 and SCLC xenograft) from human-derived small cell lung cancer isolated from smokers and nonsmokers, defective for Rb/p53 gene function, and expresseive of moderately high levels of Bcl-2.

ACHN = assay: Tumor cell viability (TABLE 1); assay type: cell-based; conditions: Homo sapiens, read-out: EC50 (50% reduction in cell viability); ACHN (Renal); serum-free conditions, 48 hour treatment
DLD-1 = assay: Tumor cell viability (TABLE 1); assay type: cell-based; conditions: Homo sapiens, read-out: EC50 (50% reduction in cell viability); DLD-1 (Colorectal); serum-free conditions, 48 hour treatment; mean ± SEM
SF-539 = assay: Tumor cell viability (TABLE 1); assay type: cell-based; conditions: Homo sapiens, read-out: EC50 (50% reduction in cell viability); SF-539 (CNS); serum-free conditions, 48 hour treatment; mean ± SEM
[1] = system: PC-3 prostate carcinoma cells; assay: Paclitaxel combination on PC-3 cells; assay type: cell-based
OVCAR-5 = assay: Tumor cell viability (TABLE 1); assay type: cell-based; conditions: Homo sapiens, read-out: EC50 (50% reduction in cell viability); OVCAR-5 (Ovarian); serum-free conditions, 48 hour treatment; mean ± SEM
LOX IMVI = assay: Tumor cell viability (TABLE 1); assay type: cell-based; conditions: Homo sapiens, read-out: EC50 (50% reduction in cell viability); LOX IMVI (Melanoma); serum-free conditions, 48 hour treatment; mean ± SEM
HT-29 = assay: Tumor cell viability (TABLE 1); assay type: cell-based; conditions: Homo sapiens, read-out: EC50 (50% reduction in cell viability); HT-29 (Colorectal); serum-free conditions, 48 hour treatment; mean ± SEM

## CN(C)CC[C@H](CSc1ccccc1)Nc1ccc(S(=O)(=O)NC(=O)c2ccc(N3CCN(Cc4ccccc4-c4ccc(Cl)cc4)CC3)cc2)cc1[N+](=O)[O-] [EXAMPLE 2, N-(4-(4-((4′-chloro(1,1′-biphenyl)-2-yl)methyl)piperazin-1-yl)benzoyl)-4-(((1R)-3-(dimethylamino)-1-((phenylsulfanyl)methyl)propyl)amino)-3-nitrobenzenesulfonamide]
786-0
  EC50: 2900 ± 100 nM
NCI/ADR-RES
  EC50: > 10000 nM
NCI-H322M
  EC50: 4100 ± 800 nM
NCI-H23
  EC50: 7400 ± 600 nM
OVCAR-8
  EC50: 3400 ± 800 nM
RXF-393
  EC50: 2900 ± 400 nM
DU-145
  EC50: 8200 ± 1100 nM
NCI-H460
  EC50: 2300 ± 1500 nM
T47D
  EC50: > 10000 nM
RS11380
  activity in follicular lymphoma model: significant activity
SK-MEL-5
  EC50: 3700 ± 800 nM
MALME-3M
  EC50: 1900 ± 800 nM
KM12
  EC50: 1700 ± 200 nM
MDA-MB-436
  EC50: 3900 ± 2600 nM
NCI-H226
  EC50: 2600 ± 1100 nM
HCT-116
  EC50: 2100 ± 1800 nM
PC3; PC3 derived murine model of prostate cancer
  inhibition of tumor growth rate: 40-50%
PC3; mouse, in vivo
  therapeutic utility in prostate cancer model: Therapeutic utility was also observed
SuDHL4
  activity in follicular lymphoma model: significant activity
BT-549
  EC50: 6500 ± 2300 nM
H146; H146 model, in some cases tumor disappearance after prolonged therapy
  tumor regression: complete regression of an established tumor
H146; H146 murine model, human-derived small cell lung cancer
  anti-tumor activity: demonstrated anti-tumor activity
ACHN
  EC50: 1000 nM
DLD-1
  EC50: 990 ± 450 nM
SF-539
  EC50: 4100 ± 600 nM
[1]
  increase in efficacy of paclitaxel when administered with the compound: 4.7 fold
OVCAR-5
  EC50: 1100 nM
LOX IMVI
  EC50: 1700 ± 400 nM
HT-29
  EC50: 1100 ± 1100 nM
